In patent US8906921B2, “4-alkoxypyridazine derivatives as fast dissociating dopamine 2 receptor antagonists” (Janssen Pharmaceutica NV, priority 2007, dated 2014) one finds melting point data, which are given here for four molecules.

Structures can show the parent of a compound that is named as a salt.

For orientation: melting point means the temperature, or range, at which the solid turns liquid.

The molecule `COc1cc(Cl)nnc1NC1CCN(Cc2cc(F)cc(C(F)(F)F)c2)CC1` registered a melting point of 121.5 °C.
Under `COc1cc(Cl)nnc1NC1CCN(Cc2ccc(F)c(F)c2)CC1` stands 130.5 °C.
The result for `COc1cc(Cl)nnc1NC1CCN(Cc2cc(F)c(F)c(F)c2)CC1` reads 150.7 °C.
In turn, `COc1cc(C(F)(F)F)nnc1NC1CCN(Cc2cccc(C(F)(F)F)c2)CC1` (as salt: hydrochloride) displayed a melting point of 211.3 °C.
